From patent US10072011B2, “Substituted bridged urea analogs as sirtuin modulators” (GlaxoSmithKline Intellectual Property (No.2) Limited, priority 2014, dated 2018)

Target: T1, SIRT1 (Homo sapiens, UniProt Q96EB6)
T1 sequence (Q96EB6 1-747): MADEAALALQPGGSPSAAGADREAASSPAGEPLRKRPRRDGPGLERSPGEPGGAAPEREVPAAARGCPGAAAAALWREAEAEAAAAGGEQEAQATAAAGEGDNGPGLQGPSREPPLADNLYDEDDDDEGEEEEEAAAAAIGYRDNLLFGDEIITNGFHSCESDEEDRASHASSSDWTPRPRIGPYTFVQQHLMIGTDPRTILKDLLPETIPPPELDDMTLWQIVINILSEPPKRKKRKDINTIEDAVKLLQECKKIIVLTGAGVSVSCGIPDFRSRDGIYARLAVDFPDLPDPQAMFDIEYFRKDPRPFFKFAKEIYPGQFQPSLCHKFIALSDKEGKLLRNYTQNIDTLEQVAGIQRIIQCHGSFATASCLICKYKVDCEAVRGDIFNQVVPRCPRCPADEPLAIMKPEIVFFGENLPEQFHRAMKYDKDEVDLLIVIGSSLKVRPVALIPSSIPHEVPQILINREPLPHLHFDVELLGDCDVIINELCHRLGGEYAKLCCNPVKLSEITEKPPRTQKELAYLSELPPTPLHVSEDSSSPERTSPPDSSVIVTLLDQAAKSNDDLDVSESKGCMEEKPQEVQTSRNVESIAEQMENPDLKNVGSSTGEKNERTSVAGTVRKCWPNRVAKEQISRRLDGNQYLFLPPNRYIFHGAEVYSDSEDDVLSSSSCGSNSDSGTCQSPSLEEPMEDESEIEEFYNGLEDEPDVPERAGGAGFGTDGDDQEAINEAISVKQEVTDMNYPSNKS
Assay: Trp mass spectrometry assay of SIRT1 activation (Ac-R-H-K-K(Ac)-W-NH2 peptide)
Assay type: biochemical
Conditions: Trp peptide 0.5 μM, 120 μM βNAD+, 10 nM SIRT1, 25 min at 25° C.; for Emax: 25 min, read-out: TRP MAX RESP (percent maximum fold activation)
Outline: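 N-terminal His-tagged human SIRT1, expressed in BL21(DE3) and purified, was incubated 25 min with an acetylated Trp peptide and NAD plus test compound at varying concentrations, then quenched with formic acid. OAADPR or deacetylated peptide was quantified by mass spectrometry versus compound-free control; EC1.5 is the concentration giving 50% activity increase, with percent maximum activation.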

SMILES	Emax (relative to control (100%))	TRP Activity (EC1.5, concentration of test compound that results in 150% activation of SIRT1)	TRP MAX RESP (percent maximum fold activation) (relative to control (100%))
Cc1ccc2c(NC(=O)N3c4nc(C(=O)N[C@H](C)C(F)(F)F)cc(C)c4N4CC[C@H]3C4)n[nH]c2n1 [Example 289, (4S)-9-methyl-N5-(6-methyl-1H-pyrazolo[3,4-b]pyridin-3-yl)-N7-((R)-1,1,1-trifluoropropan-2-yl)-3,4-dihydro-1,4-methanopyrido[2,3-b][1,4]diazepine-5,7(2H)-dicarboxamide]	> 150%	A (EC1.5<1 μM)	–
Cc1cc(C(=O)N[C@H](C)C(F)(F)F)nc2c1N1CC[C@@H](C1)N2C(=O)Nc1ccc(OC[C@@H](O)CO)cn1 [Example 290, (4S)—N5-(5-((S)-2,3-dihydroxypropoxy)pyridin-2-yl)-9-methyl-N7-((R)-1,1,1-trifluoropropan-2-yl)-3,4-dihydro-1,4-methanopyrido[2,3-b][1,4]diazepine-5,7(2H)-dicarboxamide]	> 150%	A (EC1.5<1 μM)	–
Cc1cc2c(nc1C(=O)N[C@H](C)C(F)(F)F)N(C(=O)Nc1cc(OC[C@H](O)CO)ccn1)[C@H]1CCN2C1 [Example 291, (4S)—N5-(4-((R)-2,3-dihydroxypropoxy)pyridin-2-yl)-8-methyl-N7-((R)-1,1,1-trifluoropropan-2-yl)-3,4-dihydro-1,4-methanopyrido[2,3-b][1,4]diazepine-5,7(2H)-dicarboxamide]	< 150%	A (EC1.5<1 μM)	–
Cc1cc(C(=O)N[C@H](C)C(F)(F)F)nc2c1N1CC[C@@H](C1)N2C(=O)Nc1cc(OC[C@H](O)CO)ccn1 [Example 292, (4S)—N5-(4-((R)-2,3-dihydroxypropoxy)pyridin-2-yl)-9-methyl-N7-((R)-1,1,1-trifluoropropan-2-yl)-3,4-dihydro-1,4-methanopyrido[2,3-b][1,4]diazepine-5,7(2H)-dicarboxamide]	< 150%	A (EC1.5<1 μM)	–
Cc1ncc(-c2ccnc(NC(=O)N3c4nc(C(=O)NCC(F)(F)F)cc(C)c4N4CC[C@H]3C4)c2)o1 [Example 293, (4S)-9-methyl-N5-(4-(2-methyloxazol-5-yl)pyridin-2-yl)-N7-(2,2,2-trifluoroethyl)-3,4-dihydro-1,4-methanopyrido[2,3-b][1,4]diazepine-5,7(2H)-dicarboxamide]	< 150%	A (EC1.5<1 μM)	–
Cc1cc(C(=O)NCC(F)(F)F)nc2c1N1CC[C@@H](C1)N2C(=O)Nc1cc(OC[C@H](O)CO)ccn1 [Example 294, (4S)—N5-(4-((R)-2,3-dihydroxypropoxy)pyridin-2-yl)-9-methyl-N7-(2,2,2-trifluoroethyl)-3,4-dihydro-1,4-methanopyrido[2,3-b][1,4]diazepine-5,7(2H)-dicarboxamide]	< 150%	A (EC1.5<1 μM)	–
O=C(NCC(F)(F)F)c1ccc2c(n1)N(C(=O)Nc1ccccn1)[C@H]1CC[N+]2([O-])C1 [Example 295, (4S)-5-(pyridin-2-ylcarbamoyl)-7-((2,2,2-trifluoroethyl)carbamoyl)-2,3,4,5-tetrahydro-1H-1,4-methanopyrido[2,3-b][1,4]diazepine 1-oxide]	> 150%	B (EC1.5 1-25 μM)	–
C[C@@H](NC(=O)c1ccc2c(n1)N(C(=O)Nc1cc(-c3cnn[nH]3)ccn1)[C@H]1CCN2C1)C(F)(F)F [Example 296, (4S)—N5-(4-(1H-1,2,3-triazol-5-yl)pyridin-2-yl)-N7-((R)-1,1,1-trifluoropropan-2-yl)-3,4-dihydro-1,4-methanopyrido[2,3-b][1,4]diazepine-5,7(2H)-dicarboxamide]	< 150%	A (EC1.5<1 μM)	–
CC(C)NC(=O)c1ccnc(NC(=O)N2c3nc(C(=O)N[C@H](C)C(F)(F)F)ccc3N3CC[C@H]2C3)c1 [Example 297, (4S)—N5-(4-(isopropylcarbamoyl)pyridin-2-yl)-N7-((R)-1,1,1-trifluoropropan-2-yl)-3,4-dihydro-1,4-methanopyrido[2,3-b][1,4]diazepine-5,7(2H)-dicarboxamide]	< 150%	A (EC1.5<1 μM)	–
C#Cc1ccnc(NC(=O)N2c3nc(C(=O)N[C@H](C)C(F)(F)F)ccc3N3CC[C@H]2C3)c1 [Example 299, (4S)—N5-(4-ethynylpyridin-2-yl)-N7-((R)-1,1,1-trifluoropropan-2-yl)-3,4-dihydro-1,4-methanopyrido[2,3-b][1,4]diazepine-5,7(2H)-dicarboxamide]	< 150%	A (EC1.5<1 μM)	–
Cc1cnnc(NC(=O)N2c3nc(C(=O)N[C@H](C)C(F)(F)F)ccc3N3CC[C@H]2C3)c1 [Example 300, (4S)—N5-(5-methylpyridazin-3-yl)-N7-((R)-1,1,1-trifluoropropan-2-yl)-3,4-dihydro-1,4-methanopyrido[2,3-b][1,4]diazepine-5,7(2H)-dicarboxamide]	< 150%	A (EC1.5<1 μM)	–
C[C@@H](NC(=O)c1ccc2c(n1)N(C(=O)Nc1cc(O)ccn1)[C@H]1CCN2C1)C(F)(F)F [Example 301, (4S)—N5-(4-hydroxypyridin-2-yl)-N7-((R)-1,1,1-trifluoropropan-2-yl)-3,4-dihydro-1,4-methanopyrido[2,3-b][1,4]diazepine-5,7(2H)-dicarboxamide]	< 150%	A (EC1.5<1 μM)	–
CCNC(=O)c1ccnc(NC(=O)N2c3nc(C(=O)N[C@H](C)C(F)(F)F)ccc3N3CC[C@H]2C3)c1 [Example 304, (4S)—N5-(4-(ethylcarbamoyl)pyridin-2-yl)-N7-((R)-1,1,1-trifluoropropan-2-yl)-3,4-dihydro-1,4-methanopyrido[2,3-b][1,4]diazepine-5,7(2H)-dicarboxamide]	< 150%	A (EC1.5<1 μM)	–
C[C@@H](NC(=O)c1ccc2c(n1)N(C(=O)Nc1cc(C(=O)NC3CC3)ccn1)[C@H]1CCN2C1)C(F)(F)F [Example 305, (4S)—N5-(4-(cyclopropylcarbamoyl)pyridin-2-yl)-N7-((R)-1,1,1-trifluoropropan-2-yl)-3,4-dihydro-1,4-methanopyrido[2,3-b][1,4]diazepine-5,7(2H)-dicarboxamide]	< 150%	A (EC1.5<1 μM)	–
C[C@@H](NC(=O)c1ccc2c(n1)N(C(=O)Nc1cc(N3CCOCC3)ccn1)[C@H]1CCN2C1)C(F)(F)F [Example 307, (4S)—N5-(4-morpholinopyridin-2-yl)-N7-((R)-1,1,1-trifluoropropan-2-yl)-3,4-dihydro-1,4-methanopyrido[2,3-b][1,4]diazepine-5,7(2H)-dicarboxamide]	< 150%	A (EC1.5<1 μM)	–
C[C@@H](NC(=O)c1ccc2c(n1)N(C(=O)Nc1cc(-c3nn[nH]n3)ccn1)[C@H]1CCN2C1)C(F)(F)F [Example 308, (4S)—N5-(4-(2H-tetrazol-5-yl)pyridin-2-yl)-N7-((R)-1,1,1-trifluoropropan-2-yl)-3,4-dihydro-1,4-methanopyrido[2,3-b][1,4]diazepine-5,7(2H)-dicarboxamide]	< 150%	A (EC1.5<1 μM)	–
C[C@@H](NC(=O)c1ccc2c(n1)N(C(=O)Nc1cc(NCCO)ccn1)[C@H]1CCN2C1)C(F)(F)F [Example 309, (4S)—N5-(4-((2-hydroxyethyl)amino)pyridin-2-yl)-N7-((R)-1,1,1-trifluoropropan-2-yl)-3,4-dihydro-1,4-methanopyrido[2,3-b][1,4]diazepine-5,7(2H)-dicarboxamide]	< 150%	A (EC1.5<1 μM)	–
C[C@@H](NC(=O)c1ccc2c(n1)N(C(=O)Nc1ncc(F)cc1F)[C@H]1CCN2C1)C(F)(F)F [Example 310, (4S)—N5-(3,5-difluoropyridin-2-yl)-N7-((R)-1,1,1-trifluoropropan-2-yl)-3,4-dihydro-1,4-methanopyrido[2,3-b][1,4]diazepine-5,7(2H)-dicarboxamide]	–	B (EC1.5 1-25 μM)	B (Fold Activation<150%)
